Data published in patent US20260091015A1, “TREATING IRON DEFICIENCY WITH FERRIC CARBOXYMALTOSE” (PHARMACOSMOS HOLDING A/S, priority 2018, published 2026).

How the values were obtained:
human C-terminal FGF23 = assay: C-terminal FGF23 (cFGF23) over time, two-site ELISA, trials IDA-04/IDA-05; type: in vivo
Procedure: (§1) The trial was a randomized, open-label, comparative trial. Subjects with Iron Deficiency Anaemia (IDA) were randomized 1:1 to one treatment course of one of the following treatments: • Group A: iron isomaltoside 1000 (Monofer®, Pharmacosmos, Holbok, Denmark, termed iron isomaltoside in the following), 1000 mg at baseline • Group B: ferric carboxymaltose (Ferinject®/Injectafer®, Vifor Inc, Switzerland), 750 mg at baseline and day 7, cumulative dose: 1500 mg […]
The following safety laboratory assessments were analysed: • S-phosphate: inorganic phosphorous forms an ammonium phosphomolybdate complex having the formula (NH4)3[PO4](MoO3)12 with ammonium molybdate in the presence of sulfuric acid. The complex was determined photometrically in the ultraviolet region (340 nm) of the spectrum using the Roche Modular and Cobas Analyzer. • iFGF23 and cFGF23: the human intact FGF23 was measured by the 2nd generation Elisa kit manufactured by Immonotropics, Inc, San Clemente, CA. […] The human C-terminal FGF23 was measured by the Elisa kit manufactured by Immonotropics, Inc, San Clemente, CA. […] After evaporation under nitrogen, the residue was reconstituted and analyzed using Liquid Chromatography (LC) with Tandem Mass Spectrometric detection (MS/MS). […]

[1] = test system: biochemical bone/muscle markers; assay: Biochemical bone/muscle markers (PINP, CTx, bone specific and total alkaline phosphatase), trials IDA-04/IDA-05; type: in vivo, human
Description: The term “serum Bone Specific Alkaline Phosphatase” as used herein refers to the level of Bone specific Alkaline Phosphatase in blood serum as measured using the Beckman-Coulter Ostase assay which is a one-step immunoenzymatic chemiluminescence assay using a mouse monoclonal antibody specific to Bone Specific Alkaline Phosphatase (BAP).
The term “serum Alkaline Phosphatase” as used herein refers to the level of Alkaline Phosphatase in blood serum as measured enzymatically using a Roche Modular Analyzer. In the presence of magnesium and zinc ions, p-nitrophenyl phosphate is cleaved by phosphatase into phosphate and p-nitrophenol. The p-nitrophenol released is proportional to the Alkaline Phosphatase activity and is measured photometrically.
The term “serum N-terminal Propeptide of Type I Collagen (PINP)” as used herein refers to the level of PINP in blood serum as measured using a sandwich principle, electrochemiluminescence immunoassay (ECLIA) on a Cobas e601 Analyzer. During the first incubation, PINP in the sample and a biotinylated monoclonal PINP-specific antibody are incubated together. During the second incubation, streptavidin-coated labelled microparticles and a monoclonal PINP-specific antibody labelled with ruthenium complex (Trs (2,2-bipyridyl)ruthenium (II)-complex (Ru(bpy)23+)) are added to form a sandwich complex, which binds to the solid phase via interaction of biotin and streptavidin. The reaction mixture is aspirated into the measuring cell where the microparticles are magnetically captured onto the surface of the electrode. A voltage is applied to the electrode, which induces chemiluminescent emission, which is measured by a photomultiplier. Results are determined via a calibration curve, which is instrument-specifically generated by a 2-point calibration and a master curve provided via the reagent barcode.
The term “serum Carboxy-terminal Collagen Crosslinks (CTx)” as used herein refers to the level of CTx in blood serum as measured using a sandwich principle, electrochemiluminescence immunoassay (ECLIA) on a Cobas e601 Analyzer. During the first incubation, 50 μL of sample and biotinylated monoclonal anti-beta-CrossLaps antibodies are incubated together. During the second incubation, streptavidin-coated labelled microparticles and a monoclonal P-beta-CrossLaps-specific antibody labelled with ruthenium complex are added to form a sandwich complex, which binds to the solid phase via interaction of biotin and streptavidin. The reaction mixture is aspirated into the measuring cell where the microparticles are magnetically captured onto the surface of the electrode. Unbound substances are then removed with ProCell. A voltage is applied to the electrode, which induces chemiluminescent emission, which is measured by a photomultiplier. Results are determined via a calibration curve, which is instrument-specifically generated by a 2-point calibration and a master curve provided via the reagent barcode.
as §1

intact FGF23 = conditions: women with IDA secondary to heavy uterine bleeding; Wolf et al., 2013; cited from earlier work

ferric carboxymaltose [FCM]
cFGF23 on the first administration (human C-terminal FGF23; initially high due to underlying iron deficiency anemia): dropped sharply | cFGF23 on the second administration (human C-terminal FGF23; second administration (day 7)): increased | Alkaline Phosphatase ([1]; compared to IMM): statistically significant increase | Bone Specific Alkaline Phosphatase ([1]; compared to IMM): statistically significant increase | CTx values ([1]; compared to IMM): statistically significant lower | N-terminal PINP values ([1]; compared to IMM): statistically significant lower | bone turnover ([1]; treatment according to current practice): increased | iFGF23 levels (intact FGF23): temporarily increased
